Results as given in PubChem BioAssay (NCI).
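Step 1: Grow cells in 96-well plates. Step 2: Expose to compound for 48 hours at 5 concentrations. Step 3: Interpolate endpoints linearly; if unreached, use highest concentration. Here, GI50 denotes the concentration required for 50% inhibition of growth. Definition used: TGI = concentration required for complete inhibition of growth.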

Key:
Assay in all cases: inhibition of tumour cell growth, NCI panel, 48 h
NCI-H522 lung = test system: NCI-H522 lung
COLO 205 colon = test system: COLO 205 colon
CCRF-CEM leukemia = test system: CCRF-CEM leukemia
U251 CNS = test system: U251 CNS
MOLT-4 leukemia = test system: MOLT-4 leukemia
IGROV1 ovarian = test system: IGROV1 ovarian
OVCAR-4 ovarian = test system: OVCAR-4 ovarian
SF-295 CNS = test system: SF-295 CNS
LOX IMVI melanoma = test system: LOX IMVI melanoma
MDA-MB-231 breast = test system: MDA-MB-231 breast
UACC-257 melanoma = test system: UACC-257 melanoma
SK-MEL-2 melanoma = test system: SK-MEL-2 melanoma
T-47D breast = test system: T-47D breast
RPMI-8226 leukemia = test system: RPMI-8226 leukemia
HCC-2998 colon = test system: HCC-2998 colon
PC-3 prostate = test system: PC-3 prostate
A549 NSCLC = test system: A549 NSCLC
786-0 renal = test system: 786-0 renal
HCT-116 colon = test system: HCT-116 colon
TK-10 renal = test system: TK-10 renal
OVCAR-5 ovarian = test system: OVCAR-5 ovarian
NCI-H226 lung = test system: NCI-H226 lung
ACHN renal = test system: ACHN renal
SK-MEL-5 melanoma = test system: SK-MEL-5 melanoma
SR leukemia = test system: SR leukemia
HOP-92 NSCLC = test system: HOP-92 NSCLC
BT-549 breast = test system: BT-549 breast
SNB-19 CNS = test system: SNB-19 CNS
SW-620 colon = test system: SW-620 colon
SF-539 CNS = test system: SF-539 CNS
HT29 colon = test system: HT29 colon
HCT-15 colon = test system: HCT-15 colon
UACC-62 melanoma = test system: UACC-62 melanoma
SN12C renal = test system: SN12C renal
CAKI-1 renal = test system: CAKI-1 renal
HL-60(TB) leukemia = test system: HL-60(TB) leukemia
OVCAR-3 ovarian = test system: OVCAR-3 ovarian
NCI-H23 lung = test system: NCI-H23 lung
M14 melanoma = test system: M14 melanoma
MALME-3M melanoma = test system: MALME-3M melanoma
SNB-75 CNS = test system: SNB-75 CNS
SK-MEL-28 melanoma = test system: SK-MEL-28 melanoma
EKVX NSCLC = test system: EKVX NSCLC
HOP-62 NSCLC = test system: HOP-62 NSCLC
SK-OV-3 ovarian = test system: SK-OV-3 ovarian
K-562 leukemia = test system: K-562 leukemia
MCF7 breast = test system: MCF7 breast
NCI/ADR-RES ovarian = test system: NCI/ADR-RES ovarian
NCI-H460 lung = test system: NCI-H460 lung
SF-268 CNS = test system: SF-268 CNS
MDA-MB-435 = test system: MDA-MB-435
RXF 393 renal = test system: RXF 393 renal
UO-31 renal = test system: UO-31 renal
OVCAR-8 ovarian = test system: OVCAR-8 ovarian
DU-145 prostate = test system: DU-145 prostate
HS 578T breast = test system: HS 578T breast
A498 renal = test system: A498 renal
KM12 colon = test system: KM12 colon

`CN1CCN(Cc2ccc(NC(=O)c3cncc(C#Cc4cnc5ccc(O[C@H]6CCOC6)nn45)c3)cc2C(F)(F)F)CC1` gave a GI50 (NCI-H522 lung) of 562 nM, a TGI (NCI-H522 lung) of 1320 nM and a GI50 (COLO 205 colon) of 227 nM. The TGI (COLO 205 colon) was 828 nM, the GI50 (CCRF-CEM leukemia) was 305 nM and the TGI (CCRF-CEM leukemia) was 4760 nM. It also gave a GI50 (U251 CNS) of 575 nM, a TGI (U251 CNS) of 1280 nM and a GI50 (MOLT-4 leukemia) of 289 nM. For the same molecule, the TGI (MOLT-4 leukemia) was 2720 nM, the GI50 (IGROV1 ovarian) was 177 nM and the TGI (IGROV1 ovarian) was 818 nM. It also gave a GI50 (OVCAR-4 ovarian) of 490 nM, a TGI (OVCAR-4 ovarian) of 1340 nM and a GI50 (SF-295 CNS) of 748 nM. It also gave a TGI (SF-295 CNS) of 1510 nM, a GI50 (LOX IMVI melanoma) of 186 nM and a TGI (LOX IMVI melanoma) of 743 nM. It also gave a GI50 (MDA-MB-231 breast) of 174 nM, a TGI (MDA-MB-231 breast) of 850 nM and a GI50 (UACC-257 melanoma) of 653 nM. It also gave a TGI (UACC-257 melanoma) of 1380 nM, a GI50 (SK-MEL-2 melanoma) of 431 nM and a TGI (SK-MEL-2 melanoma) of 1120 nM. The GI50 (T-47D breast) was 934 nM, the TGI (T-47D breast) was 2210 nM and the GI50 (RPMI-8226 leukemia) was 815 nM. The TGI (RPMI-8226 leukemia) was 2740 nM, the GI50 (HCC-2998 colon) was 341 nM and the TGI (HCC-2998 colon) was 964 nM. The GI50 (PC-3 prostate) was 720 nM, the TGI (PC-3 prostate) was 2280 nM and the GI50 (A549 NSCLC) was 475 nM. For the same molecule, the TGI (A549 NSCLC) was 1450 nM, the GI50 (786-0 renal) was 187 nM and the TGI (786-0 renal) was 397 nM. For the same molecule, the GI50 (HCT-116 colon) was 45.6 nM, the TGI (HCT-116 colon) was 212 nM and the GI50 (TK-10 renal) was 484 nM. For the same molecule, the TGI (TK-10 renal) was 1130 nM, the GI50 (OVCAR-5 ovarian) was 381 nM and the TGI (OVCAR-5 ovarian) was 1210 nM. It also gave a GI50 (NCI-H226 lung) of 123 nM, a TGI (NCI-H226 lung) of 1040 nM and a GI50 (ACHN renal) of 396 nM. The TGI (ACHN renal) was 1040 nM, the GI50 (SK-MEL-5 melanoma) was 716 nM and the TGI (SK-MEL-5 melanoma) was 1400 nM. It also gave a GI50 (SR leukemia) of 284 nM, a TGI (SR leukemia) of 1440 nM and a GI50 (HOP-92 NSCLC) of 55.1 nM. It also gave a TGI (HOP-92 NSCLC) of 275 nM, a GI50 (BT-549 breast) of 375 nM and a TGI (BT-549 breast) of 783 nM. For the same molecule, the GI50 (SNB-19 CNS) was 1210 nM, the TGI (SNB-19 CNS) was 3240 nM and the GI50 (SW-620 colon) was 177 nM. The TGI (SW-620 colon) was 871 nM, the GI50 (SF-539 CNS) was 171 nM and the TGI (SF-539 CNS) was 771 nM. For the same molecule, the GI50 (HT29 colon) was 194 nM, the TGI (HT29 colon) was 826 nM and the GI50 (HCT-15 colon) was 385 nM. For the same molecule, the TGI (HCT-15 colon) was 1400 nM, the GI50 (UACC-62 melanoma) was 488 nM and the TGI (UACC-62 melanoma) was 1160 nM. It also gave a GI50 (SN12C renal) of 307 nM, a TGI (SN12C renal) of 1060 nM and a GI50 (CAKI-1 renal) of 226 nM. The TGI (CAKI-1 renal) was 744 nM, the GI50 (HL-60(TB) leukemia) was 194 nM and the TGI (HL-60(TB) leukemia) was 692 nM. The GI50 (OVCAR-3 ovarian) was 591 nM, the TGI (OVCAR-3 ovarian) was 1290 nM and the GI50 (NCI-H23 lung) was 245 nM. For the same molecule, the TGI (NCI-H23 lung) was 1000 nM, the GI50 (M14 melanoma) was 97.5 nM and the TGI (M14 melanoma) was 280 nM. For the same molecule, the GI50 (MALME-3M melanoma) was 97.6 nM, the TGI (MALME-3M melanoma) was 438 nM and the GI50 (SNB-75 CNS) was 295 nM. The TGI (SNB-75 CNS) was 795 nM, the GI50 (SK-MEL-28 melanoma) was 410 nM and the TGI (SK-MEL-28 melanoma) was 1110 nM. For the same molecule, the GI50 (EKVX NSCLC) was 623 nM, the TGI (EKVX NSCLC) was 1350 nM and the GI50 (HOP-62 NSCLC) was 505 nM. The TGI (HOP-62 NSCLC) was 1280 nM, the GI50 (SK-OV-3 ovarian) was 848 nM and the TGI (SK-OV-3 ovarian) was 1760 nM. It also gave a GI50 (K-562 leukemia) of 5 nM, a TGI (K-562 leukemia) of 544 nM and a GI50 (MCF7 breast) of 149 nM. For the same molecule, the TGI (MCF7 breast) was 752 nM, the GI50 (NCI/ADR-RES ovarian) was 1120 nM and the TGI (NCI/ADR-RES ovarian) was 3100 nM. The GI50 (NCI-H460 lung) was 341 nM, the TGI (NCI-H460 lung) was 962 nM and the GI50 (SF-268 CNS) was 593 nM. The TGI (SF-268 CNS) was 1420 nM, the GI50 (MDA-MB-435) was 159 nM and the TGI (MDA-MB-435) was 705 nM. The GI50 (RXF 393 renal) was 681 nM, the TGI (RXF 393 renal) was 1440 nM and the GI50 (UO-31 renal) was 270 nM. The TGI (UO-31 renal) was 853 nM, the GI50 (OVCAR-8 ovarian) was 675 nM and the TGI (OVCAR-8 ovarian) was 1540 nM. For the same molecule, the GI50 (DU-145 prostate) was 521 nM, the TGI (DU-145 prostate) was 1180 nM and the GI50 (HS 578T breast) was 555 nM. For the same molecule, the TGI (HS 578T breast) was 1590 nM, the GI50 (A498 renal) was 871 nM and the TGI (A498 renal) was 1590 nM. The GI50 (KM12 colon) was 5 nM and the TGI (KM12 colon) was 725 nM.
